Experimental findings from patent US20260097047A1, “Small molecule inhibitors of the ribosome biogenesis factor NVL2” (Board of Regents, The University of Texas System, priority 2023, published 2026) are described below.

One series relates to cleaved caspase-3. Put plainly: Cleaved caspase-3 (apoptosis), HCT116 control and p53 KO cells. In kind it is cell-based, human. The source says:
The upregulation of p53 and its effector p21 can arrest cell growth or induce cell death through apoptosis. […] Next, we addressed whether cell death was mediated by an apoptotic pathway by assaying for cleaved caspase-3, a bona fide marker of apoptosis.

The next series concerns HCT116 NVL^R403W cells. Put plainly: Cell viability counter-screen in compound-resistant HCT116 NVL^R403W cells. The following applies: NVL^P307T, NVL^R403W or NVL^H304R cells. In kind it is cell-based, human. How it is done: Design and synthesis of benzothiazepine-based NVL inhibitors. […] Analogs were evaluated against the colorectal cancer cell line HCT116, and counter-screened against a compound resistant NVL2^R403W clone. Cytotoxicity in wild-type HCT116 was determined. […] Initial SAR focused on exploring the replacement of the furan ring of initial dibenzothiazepinone hit MM017. We first explored a wide variety of mono- and di-substituted phenyl rings, including a broad spectrum of functionality (F, Cl, alkyl, alkoxy, fluoroalkoxy, CN, formamide, S(O) Me, carboxyl, . . . ). […]
HCT116 cells were transfected with TransIT-LT (Mirus #MIR2304) according to manufacturer's protocol with a guide RNA (either mock or NVL targeting) in the px330 vector (Addgene, #42230), and 10 nM single stranded deoxyoligonucleotide encoding a specific NVL mutation (see below for specific sequences). […] The resulting cells were evaluated by cresyl violet staining or collected and the relevant NVL mutations were analyzed by either amplicon or sanger sequencing.
Cell viability assay: In 96-well assay plates (Corning #2903), 2,000 cells were plated per well in 100 μL of medium and allowed to adhere overnight. […] Luminescence (CellTiter-Glo) was recorded using a Synergy 2 microplate reader (BioTek). […]
In general terms: Counterscreens check selectivity or assay interference.

Series [1] deals with p53 KO and p21 KO HCT116 cells. As to the kind of experiment: Growth competition of p53 or p21 knockout versus control HCT116 cells. In kind it is cell-based, human. The source says: To better understand how inhibition of NVL by MM017 leads to cell death, we performed a genome wide pooled CRISPR/Cas9 knockout screen in HCT116 cells using a library of guide RNAs targeting 19,114 genes. Cells were pulsed intermittently with vehicle or MM017 over 21 days, at which point MM017 treated cells had undergone 9.79 fewer population doublings. Massively parallel sequencing of PCR products amplified from genomic DNA was used to determine relative levels of sgRNA sequences to infer the relative impact of each gene on compound sensitivity. […] To confirm whether p53 and p21 are required for the anti-proliferative activity of MM017, we performed a growth competition experiment between cells expressing ZsGreen with either p53 or p21 knockout (KO) and control cells expressing mCherry. Without treatment, the ratio between green and red cells was unchanged over time.

Series [2] has as its system HCT116 control and p53 KO cells. Put plainly: Cell death by loss in membrane permeability, HCT116 control and p53 KO cells. In kind it is cell-based, human. To be noted: five-day treatment.
Another series deals with NVL-AID. As to the kind of experiment: Viability of NVL^AID/AID cells on auxin-induced NVL degradation. Type of series: cell-based, human. The source says: To study the effect of NVL depletion, we engineered a C-terminal FLAG-epitope auxin-inducible degron (AID) tag into NVL in cells that also express the plant E3 ligase TIR1.
The subject of another series is 902 cancer cell lines. Put plainly: PRISM screen across 902 cancer cell lines. Type of series: cell-based. The following applies: 902 cancer cell lines, 1,215 compounds. The source says: (§1) Inhibition of 60S ribosome biogenesis is known to induce the stability and upregulation of p53, which could serve as a potential pharmacodynamics marker for MM017 in HCT116 cells. […] We used PRISM (Broad Institute) to evaluate the selectivity of MM017 across 902 cancer cell lines and then correlated this selectivity to 1,215 clinical and pre-clinical compounds in the PRISM database. […] These observations indicate that oxaliplatin and carmofur, like MM017, target ribosome biogenesis.
To nominate genetic predictors of MM017 sensitivity across different cancer types, we performed a PRISM screen across 902 cancer cell lines with known genotypes (31). […] These findings are consistent with the isogenic CRISPR screen and indicate that p53 is a critical effector for MM017 in cancer cells from multiple lineages and with differing genotypes.

The next series relates to p53 and p21. Put plainly: p53 and p21 protein levels in HCT116 cells. Type of series: cell-based, human.
Description: as §1

In series [3] the test system is serine 15 phosphorylated p53. Put plainly: p53 serine 15 phosphorylation (DNA damage response marker). To be noted: MM017 up to 10 μM.
Description: A biochemical marker for activation of the DNA damage response is phosphorylation of serine 15 of p53, which results in increased p53 protein (41). Thus, we compared the impact of MM017, oxaliplatin, and CX-5461 on both p53 upregulation and p53 serine 15 phosphorylation.

Regarding `CN[C@@H]1C[C@H]2O[C@@](C)([C@@H]1OC)n1c3ccccc3c3c4c(c5c6ccccc6n2c5c31)C(=O)NC4` [Staurosporine, reference compound], the “cleaved caspase-3” value in the series on cleaved caspase-3 was “robust caspase activation in both control and p53 KO cells”.

For `CC(=O)O[C@H]1C(=O)[C@@]2(C)[C@H]([C@H](OC(=O)c3ccccc3)[C@]3(O)C[C@H](OC(=O)[C@H](O)[C@@H](NC(=O)c4ccccc4)c4ccccc4)C(C)=C1C3(C)C)[C@]1(OC(C)=O)CO[C@@H]1C[C@@H]2O` [paclitaxel, reference compound], the “sensitivity of NVL mutant cells compared to NVL^WT” value in the series on HCT116 NVL^R403W cells was “equally sensitive”. Also, the “enrichment of p53 or p21 KO cells in growth competition” value in series [1] was “no competitive advantage”. Further, in series [2], the “cell death in p53 KO versus control cells” value is “cell death irrespective of p53”.

On to `O=C(O)Cc1c[nH]c2ccc(-c3ccccc3)cc12` [Ph-IAA, 5-Phenyl-indole-3-acetic acid], for which the “viability of NVL^AID/AID cells” value in the series with NVL-AID is reported as “reduced viability in a dose-dependent manner”.

For `CCCCCCNC(=O)n1cc(F)c(=O)[nH]c1=O` [carmofur], the “correlation (r) of selectivity with MM017” value with 902 cancer cell lines stood at 0.53.

Regarding `O=C1[O][Pt]2([NH][C@@H]3CCCC[C@H]3[NH]2)[O]C1=O` [oxaliplatin, reference compound], in the series on p53 and p21, the “p53 levels in parental HCT116 cells” value is listed as “dose-dependent increase in the levels of p53”. Also, the “serine 15 phosphorylated p53” value in series [3] is reported as “dose-dependent increase in phosphorylated p53”.
